Substitutions are numbered along the chain they refer to.
Tests used:
LinA-type2 = molecular target: T1, LinA-type2 (uncultured organism, UniProt B5ANU3); assay: product formation by chiral GC-ECD; format: biochemical; settings: 50 mM Tris-HCl pH 8.0, 10% glycerol, 30 °C
T1 construct: natural variant differing from LinA-type1 at ten positions (incl. Q20, C96, G131, M133); pET-26b(+) NdeI/XhoI (C-terminal His tag), E. coli BL21(DE3), Ni-NTA purified
T1 sequence (B5ANU3 1-156): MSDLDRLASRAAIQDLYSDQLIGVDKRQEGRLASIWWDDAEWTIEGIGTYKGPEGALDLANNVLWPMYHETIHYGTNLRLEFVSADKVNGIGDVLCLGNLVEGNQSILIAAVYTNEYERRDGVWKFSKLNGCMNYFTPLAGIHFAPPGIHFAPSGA

LinA-type1 = molecular target: T2, LinA-type1 (Sphingobium indicum, UniProt P51697); assay: product formation by chiral GC-ECD; format: biochemical; settings: 50 mM Tris-HCl pH 8.0, 10% glycerol, 30 °C
T2 construct: full length 156 residues, pET-26b(+) NdeI/XhoI (C-terminal His tag), E. coli BL21(DE3), Ni-NTA purified
T2 sequence (P51697 1-156): T1 sequence (B5ANU3 1-156) with Q20K, G23A, Y68F, T71C, C96L, Y113F, N115D, L129R, G131A, M133T

## Cl[C@H]1[C@H](Cl)[C@@H](Cl)[C@@H](Cl)[C@H](Cl)[C@H]1Cl [γ-HCH]
LinA-type2
  product formation by chiral GC-ECD: incubations with LinA-type2 led to the formation of a mixture
LinA-type1
  product formation by chiral GC-ECD: incubations of LinA-type1 with γ-HCH led to the formation of only γ-PCCH-2
